Assay results taken from US6762174B1 (priority 1998, dated 2004).
Read-outs that look alike come from different tables or passages of the source.

Legend:
[1] = system: B16 melanoma; format: in vivo, female BDF1 mice; conditions: for Statistically Significant Effect on Reducing Tumor Volume: cp alone
[2] = system: MT-1 breast cancer xenograft; conditions: for Died of toxic effects: 8 mice

What does the source list for `O=P1(N(CCCl)CCCl)NCCCO1` (centres unmarked) [cp, cyclophosphamide]?
Percent of Animals with Greater than 10 Metastases ([1]; Cp 200 mg/kg): 50%; animals with 0-10 Metastases on Day 42 ([1]; Cp 200 mg/kg): 4; animals with 11-20 Metastases on Day 42 ([1]; Cp 200 mg/kg): 3; animals with 21-30 Metastases on Day 42 ([1]; Cp 200 mg/kg): 0; animals with over 30 Metastases (full of metastases) on Day 42 ([1]; Cp 200 mg/kg): 1; Primary Tumor Size (Median RTV) ([1]; cp 200 mg/kg alone, day 0): 1; Primary Tumor Size (Median RTV) ([1]; cp 200 mg/kg alone, day 4): 1.0; Primary Tumor Size (Median RTV) ([1]; cp 200 mg/kg alone, day 7): 2.4; Primary Tumor Size (Median RTV) ([1]; cp 200 mg/kg alone, day 10): 3.5; Primary Tumor Size (Median RTV) ([1]; cp 200 mg/kg alone, day 14): 12.9; Primary Tumor Size (Median RTV) ([1]; cp 200 mg/kg alone, day 17): 32.6; T/C ratio for medium tumor volume ([1]; cp 200 mg/kg alone, day 17): 82.3%; Statistically Significant Effect on Reducing Tumor Volume ([1]; DAY 7): No; Statistically Significant Effect on Reducing Tumor Volume ([1]; DAY 10): Yes; Statistically Significant Effect on Reducing Tumor Volume ([1]; DAY 14): Yes; Statistically Significant Effect on Reducing Tumor Volume ([1]; DAY 17): No; Median Relative Tumor Volume ([2]; 100 mg/kg cp, day 42): 1; Median Relative Tumor Volume ([2]; 100 mg/kg cp, day 46): 1.37; Median Relative Tumor Volume ([2]; 100 mg/kg cp, day 49): 1.54; Median Relative Tumor Volume ([2]; 100 mg/kg cp, day 53): 1.50; Median Relative Tumor Volume ([2]; 100 mg/kg cp, day 59): 1.85; Median Relative Tumor Volume ([2]; 200 mg/kg cp, day 42): 1; Median Relative Tumor Volume ([2]; 200 mg/kg cp, day 46): 1.15; Median Relative Tumor Volume ([2]; 200 mg/kg cp, day 49): 1.11; Median Relative Tumor Volume ([2]; 200 mg/kg cp, day 53): 1.21; Median Relative Tumor Volume ([2]; 200 mg/kg cp, day 59): 1.15; Median Relative Tumor Volume ([2]; 300 mg/kg cp, day 42): 1; Median Relative Tumor Volume ([2]; 300 mg/kg cp, day 46): 1.34; Median Relative Tumor Volume ([2]; 300 mg/kg cp, day 49): 1.14; Median Relative Tumor Volume ([2]; 300 mg/kg cp, day 53): 1.15; Median Relative Tumor Volume ([2]; 300 mg/kg cp, day 59): 1.14; T/C RTV d 49 ([2]; Cp 100 mg/kg): 87%; T/C RTV d 59 ([2]; Cp 100 mg/kg): 81%; WBC d 46 ([2]; Cp 100 mg/kg): 10.3 10^6/mL; T/C RTV d 49 ([2]; Cp 200 mg/kg): 63%; T/C RTV d 59 ([2]; Cp 200 mg/kg): 50%; WBC d 46 ([2]; Cp 200 mg/kg): 5.5 10^6/mL; Last 2 readings indicate progression ([2]; Cp 300 mg/kg): 12%; Last 2 readings indicate regression ([2]; Cp 300 mg/kg): 12%; Last 2 readings stayed the same ([2]; Cp 300 mg/kg): 0%; Last reading indicates progression ([2]; Cp 300 mg/kg): 25%; Last reading indicates regression ([2]; Cp 300 mg/kg): 25%; T/C RTV d 49 ([2]; Cp 300 mg/kg): 65%; T/C RTV d 59 ([2]; Cp 300 mg/kg): 50%; WBC d 46 ([2]; Cp 300 mg/kg): 5.6 10^6/mL; Died of toxic effects ([2]; Cp 300 mg/kg): 25%; Died of toxic effects ([2]; Cp 300 mg/kg, listed as Cp): 25%
